Data taken from PMC7356761 (Molecules, 2020).

Experiments:
[1] = Partition coefficient, shake-flask n-octanol/phosphate buffer; assay type: physicochemical; conditions: n-octanol/0.1 M phosphate buffer pH 7.4, shake-flask
Procedure: 3.6. Determination of Partition Coefficient
The partition coefficient of [^125I]10 was measured, as previously reported with a slight modification. Briefly, [^125I]10 was added to the mixture of each 3 mL of n-octanol and 0.1 M phosphate buffer (pH 7.4) in a test tube. The test tube was vortexed for 1 min, left at room temperature for 10 min and centrifuged at 3000× g and 4 °C for 5 min. The n-octanol layer (2 mL) was transferred into a new test tube followed by adding 1 mL of new n-octanol and 3 mL of phosphate buffer. The radioactivity of each 1 mL layer, n-octanol and phosphate buffer was measured using an auto well gamma counter (n = 4). The log P value was calculated by the logarithm of the ratio of radioactivity per milliliter (cpm/mL) in n-octanol to that in phosphate buffer and represents mean ± SD.

[2] = Biodistribution in tumor-bearing mice, normal tissues; assay type: in vivo, mouse
Procedure: (§1) Male ddY mice (27–30 g, 6 weeks old) and female BALB/c nu/nu mice (12–17 g, 4 weeks old) were purchased from Japan SLC Inc. (Hamamatsu, Japan). The mice were housed in a cage with free access to food and water maintained at a constant temperature (23–25 °C) with a 12 h light/dark cycle. […] The tumor reached palpable size 2- and 3-weeks post-inoculation. Animal experiments were conducted in accordance with laboratory guidelines for the care and use of animals of Kanazawa University. The animal handling protocol was approved by the Kanazawa University Animal Care Committee (approval number: AP-163766). 3.10. Biodistribution Studies Mice were injected intravenously via the lateral tail vein with a saline solution of [^125I]10 (25 kBq, 100 μL) containing 1% tween-80 and 10% ethanol. The ddY mice were sacrificed at 10 min, 1, 4 and 24 h; meanwhile, the tumor-bearing mice were sacrificed at 1 and 4 h post injection. The selected tissues and organs were collected and weighed and their radioactivity was measured using an auto well gamma counter. […] The mice were sacrificed 1 h after the administration of radiotracer. The biodistribution data are expressed as percent injected dose per gram of tissue (% ID/g) along with the SD.

[3] = system: H441 cells (wild-type EGFR); experiment: Cellular uptake study, H441; assay type: cell-based, human; conditions: H441, 4 h incubation
Procedure: (§2) 3.8. Cellular Uptake Studies
(§3) Then, the cell culture was incubated in a serum-free medium containing [^125I]10 (3.7 kBq/well) for 4 h. The medium from each well was removed and the cells were washed with 1 mL of ice-cold PBS. Finally, all cell fractions were lysed twice with 0.5 mL of 1 M NaOH aqueous solution. The radioactivity of every fraction was determined by an auto well gamma counter. Total cell protein was determined using the Bicinchoninic Acid (BCA) Protein Assay Kit (Nacalai) protocol, which uses bovine serum albumin as a standard reference. […]. All data were expressed as percent dose per milligram of protein (% dose/mg protein) ± SD.

H3255 tumor = experiment: Biodistribution in tumor-bearing mice, H3255 tumor; assay type: in vivo, mouse
Procedure: as §1

[4] = system: H1975 cells (L858R/T790M active mutant EGFR); experiment: Cellular uptake study, H1975; assay type: cell-based, human
Procedure: as §2, §3

[5] = Blocking (1 h), CO-1686 30 mg/kg i.p. 1 h prior

C=CC(=O)Nc1cc([125I])cc(Nc2nc(Nc3ccc(N4CCN(C(C)=O)CC4)cc3OC)ncc2C(F)(F)F)c1 [[^125I]10]
logP [1]: 1.84 ± 0.01 | Biodistribution, Blood [2, 5]: 1.79 (0.21) % ID/g tissue | Biodistribution, Bone [2, 5]: 1.07 (0.36) % ID/g tissue | Biodistribution, Brain [2, 5]: 0.10 (0.02) % ID/g tissue | Biodistribution, Heart [2, 5]: 1.53 (0.58) % ID/g tissue | Biodistribution, Kidney [2, 5]: 4.19 (1.28) % ID/g tissue | Biodistribution, Large intestine [2, 5]: 8.96 (7.48) % ID/g tissue | Biodistribution, Liver [2, 5]: 21.77 (2.83) % ID/g tissue | Biodistribution, Lung [2, 5]: 3.40 (0.93) % ID/g tissue | Biodistribution, Muscle [2, 5]: 1.09 (0.42) % ID/g tissue | Biodistribution, Pancreas [2, 5]: 3.87 (0.87) % ID/g tissue | Biodistribution, Small intestine [2, 5]: 60.68 (6.67) % ID/g tissue | Biodistribution, Spleen [2, 5]: 2.81 (0.77) % ID/g tissue | Biodistribution, Stomach [2, 5]: 1.44 (0.57) % ID/organ | Biodistribution, Blood ([2]; i.v., 1 h): 1.74 (0.18) % ID/g tissue | Biodistribution, Bone ([2]; i.v., 1 h): 0.50 (0.40) % ID/g tissue | Biodistribution, Brain ([2]; i.v., 1 h): 0.11 (0.08) % ID/g tissue | Biodistribution, Heart ([2]; i.v., 1 h): 1.46 (0.31) % ID/g tissue | Biodistribution, Kidney ([2]; i.v., 1 h): 5.26 (1.50) % ID/g tissue | Biodistribution, Large intestine ([2]; i.v., 1 h): 18.65 (19.88) % ID/g tissue | Biodistribution, Liver ([2]; i.v., 1 h): 28.12 (5.43) % ID/g tissue | Biodistribution, Lung ([2]; i.v., 1 h): 4.67 (0.85) % ID/g tissue | Biodistribution, Muscle ([2]; i.v., 1 h): 0.86 (0.21) % ID/g tissue | Biodistribution, Pancreas ([2]; i.v., 1 h): 1.99 (0.52) % ID/g tissue | Biodistribution, Small intestine ([2]; i.v., 1 h): 85.58 (7.68) % ID/g tissue | Biodistribution, Spleen ([2]; i.v., 1 h): 3.20 (0.62) % ID/g tissue | Biodistribution, Stomach ([2]; i.v., 1 h): 1.04 (0.36) % ID/organ | Biodistribution, Blood ([2]; i.v., 4 h): 0.77 (0.07) % ID/g tissue | Biodistribution, Bone ([2]; i.v., 4 h): 0.24 (0.20) % ID/g tissue | Biodistribution, Brain ([2]; i.v., 4 h): 0.04 (0.02) % ID/g tissue | Biodistribution, Heart ([2]; i.v., 4 h): 0.60 (0.67) % ID/g tissue | Biodistribution, Kidney ([2]; i.v., 4 h): 1.62 (0.26) % ID/g tissue | Biodistribution, Large intestine ([2]; i.v., 4 h): 144.21 (10.97) % ID/g tissue | Biodistribution, Liver ([2]; i.v., 4 h): 12.40 (1.06) % ID/g tissue | Biodistribution, Lung ([2]; i.v., 4 h): 1.02 (0.28) % ID/g tissue | Biodistribution, Muscle ([2]; i.v., 4 h): 0.27 (0.08) % ID/g tissue | Biodistribution, Pancreas ([2]; i.v., 4 h): 0.49 (0.12) % ID/g tissue | Biodistribution, Small intestine ([2]; i.v., 4 h): 9.82 (3.17) % ID/g tissue | Biodistribution, Spleen ([2]; i.v., 4 h): 0.71 (0.19) % ID/g tissue | Biodistribution, Stomach ([2]; i.v., 4 h): 0.48 (0.19) % ID/organ | cell uptake [3]: 8.95 % dose/mg protein | Biodistribution, H3255 tumor (H3255 tumor; [5]): 1.47 (0.71) % ID/g tissue | Biodistribution, H3255 tumor (H3255 tumor; i.v., 1 h): 1.63 (0.23) % ID/g tissue | Biodistribution, H3255 tumor (H3255 tumor; i.v., 1 h, listed as [^125I]ICO1686): 1.63 ± 0.23 % ID/g tissue | Biodistribution, H3255 tumor (H3255 tumor; i.v., 4 h): 0.70 (0.13) % ID/g tissue | cell uptake ([4]; H1975, 4 h incubation): 101.52 % dose/mg protein | cell uptake with blocking ([4]; H1975, excess CO-1686 (100 µM)): 45.61 % dose/mg protein | effect of gefitinib blocking on accumulation ([4]; H1975, gefitinib 100 µM): did not reduce
